From patent US7879858B2, “Substituted tetrahydropyrrolopyrazine compounds and the use thereof in pharmaceutical compositions” (Gruenenthal GmbH, priority 2006, dated 2011)

Assays:
Serotonin reuptake = biological target: T1, Serotonin reuptake (Rattus norvegicus, UniProt P31652); experiment: Inhibition of 5HT (serotonin) uptake in rat brain synaptosomes; assay type: biochemical; conditions: 10 μmol; synaptosomes from rat brain
T1 construct: synaptosomes are freshly isolated from areas of the rat brain; from tissue; host or cells: rat brain synaptosomes (P2 fraction)
Method: (§1) Biological Data Inhibition of NA and 5HT Uptake
(§2) In order to be able to carry out these in vitro studies, synaptosomes are freshly isolated from areas of the rat brain. In each case a so-called “P2” fraction prepared in accordance with the instructions of Gray and Whittaker (E. G. Gray and V. P. Whittaker (1962) J. Anat. 76, 79-88) is prepared. For the NA uptake, these vesicular particles are isolated from the hypothalamus of male rat brains. A detailed description of the method can be found in the literature (M. Ch. Frink, H.-H. Hennies, W. Englberger, M. Haurand and B. Wilffert (1996) Arzneim.-Forsch./Drug Res. 46 (III), 11, 1029-1036).

NA reuptake = experiment: Inhibition of NA (noradrenaline) uptake in rat hypothalamus synaptosomes; assay type: biochemical; conditions: synaptosomes from hypothalamus of male rat brains
Method: as §1, §2

T1 sequence (P31652 whole entry): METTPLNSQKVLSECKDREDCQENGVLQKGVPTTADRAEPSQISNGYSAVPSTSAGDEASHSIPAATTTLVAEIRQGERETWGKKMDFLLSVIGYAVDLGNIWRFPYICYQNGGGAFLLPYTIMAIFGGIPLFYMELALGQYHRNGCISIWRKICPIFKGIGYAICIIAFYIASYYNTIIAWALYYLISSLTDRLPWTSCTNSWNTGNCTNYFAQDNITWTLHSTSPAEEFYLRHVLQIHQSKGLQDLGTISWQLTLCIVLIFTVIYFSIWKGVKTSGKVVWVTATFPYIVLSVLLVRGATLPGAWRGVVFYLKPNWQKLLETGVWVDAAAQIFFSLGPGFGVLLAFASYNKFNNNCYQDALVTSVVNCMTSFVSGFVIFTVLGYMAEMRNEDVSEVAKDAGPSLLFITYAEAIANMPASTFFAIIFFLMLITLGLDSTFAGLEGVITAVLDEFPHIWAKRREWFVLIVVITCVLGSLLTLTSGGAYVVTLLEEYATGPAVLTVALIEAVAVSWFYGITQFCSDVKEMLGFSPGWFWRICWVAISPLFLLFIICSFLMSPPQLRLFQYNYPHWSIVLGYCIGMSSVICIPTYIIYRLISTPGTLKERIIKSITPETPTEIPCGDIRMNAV

Row | inhibition at 10 µM (Serotonin reuptake) | Structure (SMILES) | NA reuptake % inhibition [10 μmol] (NA reuptake)
1 | 57% | O=C(c1ccco1)N1CCn2cccc2C1c1ccc(Cl)c(Cl)c1 (stereo not drawn) [Example 68, [1-(3,4-dichloro-phenyl)-3,4-dihydro-1H-pyrrolo[1,2-a]pyrazin-2-yl]-furan-2-yl-methanone] | 48%
2 | 28% | O=C(/C=C/c1ccccc1)N1CCn2cccc2C1c1cccs1 (stereo not drawn) [Example 72, 3-phenyl-1-(1-(thiophen-2-yl)-3,4-dihydropyrrolo[1,2-a]pyrazin-2(1H)-yl)prop-2-en-1-one] | 23%
3 | 38% | Cc1ccccc1C(=O)N1CCn2cccc2C1c1ccc(F)cc1 (stereo not drawn) [Example 75, (1-(4-fluorophenyl)-3,4-dihydropyrrolo[1,2-a]pyrazin-2(1H)-yl)(o-tolyl)methanone] | 17%
4 | 53% | O=C(CCC1CCCCC1)N1CCn2cccc2C1c1cccs1 (stereo not drawn) [Example 86, 3-cyclohexyl-1-(1-(thiophen-2-yl)-3,4-dihydropyrrolo[1,2-a]pyrazin-2(1H)-yl)propan-1-one] | 19%
5 | 40% | Cc1ccc(C2c3cccn3CCN2C(=O)c2ccccc2F)cc1 (stereo not drawn) [Example 69, (2-fluorophenyl)(1-p-tolyl-3,4-dihydropyrrolo[1,2-a]pyrazin-2(1H)-yl)methanone] | 12%
6 | 43% | O=C(c1cccs1)N1CCn2cccc2C1c1ccc(Cl)c(Cl)c1 (stereo not drawn) [Example 65, (1-(3,4-Dichlorophenyl)-3,4-dihydropyrrolo[1,2-a]pyrazin-2(1H)-yl)(thiophen-2-yl)methanone] | 49%
7 | 46% | CC(C)C(=O)N1CCn2cccc2C1c1ccc(Cl)c(Cl)c1 (stereo not drawn) [Example 67, 1-(1-(3,4-dichlorophenyl)-3,4-dihydropyrrolo[1,2-a]pyrazin-2(1H)-yl)-2-methylpropan-1-one] | 46%
8 | 25% | O=C(CCCCc1ccccc1)N1CCn2cccc2C1c1cccs1 (stereo not drawn) [Example 77, 5-phenyl-1-(1-(thiophen-2-yl)-3,4-dihydropyrrolo[1,2-a]pyrazin-2(1H)-yl)pentan-1-one] | 10%
9 | 36% | O=C(CCc1ccccc1)N1CCn2cccc2C1c1cccs1 (stereo not drawn) [Example 76, 3-phenyl-1-(1-(thiophen-2-yl)-3,4-dihydropyrrolo[1,2-a]pyrazin-2(1H)-yl)propan-1-one] | 46%
10 | 12% | CC(C)(C)CC(=O)N1CCn2cccc2C1c1cccs1 (stereo not drawn) [Example 85, 3,3-dimethyl-1-(1-(thiophen-2-yl)-3,4-dihydropyrrolo[1,2-a]pyrazin-2(1H)-yl)butan-1-one] | –
11 | 51% | CCCCCC(=O)N1CCn2cccc2C1c1cccs1 (stereo not drawn) [Example 78, 1-(1-(thiophen-2-yl)-3,4-dihydropyrrolo[1,2-a]pyrazin-2(1H)-yl)hexan-1-one] | –
12 | 16% | CC(=O)N1CCn2cccc2C1c1cccs1 (stereo not drawn) [Example 83, 1-(1-(thiophen-2-yl)-3,4-dihydropyrrolo[1,2-a]pyrazin-2(1H)-yl)ethanone] | –
13 | 25% | CC1c2cccn2CCN1C(=O)/C=C/c1ccc(F)cc1 (stereo not drawn) [Example 73, 3-(4-fluorophenyl)-1-(1-methyl-3,4-dihydropyrrolo[1,2-a]pyrazin-2(1H)-yl)prop-2-en-1-one] | –
14 | 32% | CC1c2cccn2CCN1C(=O)/C=C/c1ccc(SC(F)(F)F)cc1 (stereo not drawn) [Example 74, 1-(1-methyl-3,4-dihydropyrrolo[1,2-a]pyrazin-2(1H)-yl)-3-(4-(trifluoromethylthio)phenyl)prop-2-en-1-one] | –
15 | 17% | O=C(CCCc1ccccc1)N1CCn2cccc2C1c1cccs1 (stereo not drawn) [Example 87, 4-phenyl-1-(1-(thiophen-2-yl)-3,4-dihydropyrrolo[1,2-a]pyrazin-2(1H)-yl)butan-1-one] | –

The remaining lines, values behind:

Row | Structure (SMILES) | inhibition at 10 µM (Serotonin reuptake) | NA reuptake % inhibition [10 μmol] (NA reuptake)
16 | Cc1cccc(C2c3cccn3CCN2C(=O)C2CCCC2)c1 (stereo not drawn) [Example 17, cyclopentyl(1-m-tolyl-3,4-dihydropyrrolo[1,2-a]pyrazin-2(1H)-yl)methanone] | 34% | 21%
17 | CN(C)c1ccc(C2c3cccn3CCN2C(=O)c2cccs2)cc1 (stereo not drawn) [Example 53, (1-(4-(dimethylamino)phenyl)-3,4-dihydropyrrolo[1,2-a]pyrazin-2(1H)-yl)(thiophen-2-yl)methanone] | 31% | 26%
18 | COc1ccccc1C1c2cccn2CCN1C(=O)c1cccc(F)c1 (stereo not drawn) [Example 1, (3-fluorophenyl)(1-(2-methoxyphenyl)-3,4-dihydropyrrolo[1,2-a]pyrazin-2(1H)-yl)methanone] | 26% | –
19 | O=C(c1ccco1)N1CCn2cccc2C1c1ccccc1F (stereo not drawn) [Example 5, (1-(2-fluorophenyl)-3,4-dihydropyrrolo[1,2-a]pyrazin-2(1H)-yl)(furan-2-yl)methanone] | 11% | 34%
20 | Cc1ccccc1C1c2cccn2CCN1C(=O)c1ccc2c(c1)OCO2 (stereo not drawn) [Example 12, benzo[d][1,3]dioxol-5-yl(1-o-tolyl-3,4-dihydropyrrolo[1,2-a]pyrazin-2(1H)-yl)methanone] | 34% | 22%
21 | Cc1cccc(C2c3cccn3CCN2C(=O)c2cccs2)c1 (stereo not drawn) [Example 14, thiophen-2-yl(1-m-tolyl-3,4-dihydropyrrolo[1,2-a]pyrazin-2(1H)-yl)methanone] | 27% | 25%
22 | O=C(C1CCC1)N1CCn2cccc2C1c1ccc(F)cc1 (stereo not drawn) [Example 28, cyclobutyl(1-(4-fluorophenyl)-3,4-dihydropyrrolo[1,2-a]pyrazin-2(1H)-yl)methanone] | 29% | 21%
23 | O=C(c1ccc2c(c1)OCO2)N1CCn2cccc2C1c1ccc2c(c1)OCCO2 (stereo not drawn) [Example 33, benzo[1,3]dioxol-5-yl-[1-(2,3-dihydro-benzo[1,4]dioxin-6-yl)-3,4-dihydro-1H-pyrrolo[1,2-a]pyrazin-2-yl]-methanone] | 52% | 26%
24 | CN(C)c1ccc(C2c3cccn3CCN2C(=O)c2ccc(F)cc2)cc1 (stereo not drawn) [Example 54, (1-(4-(dimethylamino)phenyl)-3,4-dihydropyrrolo[1,2-a]pyrazin-2(1H)-yl)(4-fluorophenyl)methanone] | 47% | 40%
25 | COc1ccccc1C1c2cccn2CCN1C(=O)c1ccccc1F (stereo not drawn) [Example 49, (2-fluorophenyl)(1-(2-methoxyphenyl)-3,4-dihydropyrrolo[1,2-a]pyrazin-2(1H)-yl)methanone] | 47% | 12%
26 | O=C(c1ccc(F)cc1)N1CCn2cccc2C1c1cccc(Cl)c1 (stereo not drawn) [Example 46, [1-(3-chloro-phenyl)-3,4-dihydro-1H-pyrrolo[1,2-a]pyrazin-2-yl]-(4-fluoro-phenyl)-methanone] | 52% | 50%
27 | O=C(C1CCCC1)N1CCn2cccc2C1c1ccccc1 (stereo not drawn) [Example 24, cyclopentyl(1-phenyl-3,4-dihydropyrrolo[1,2-a]pyrazin-2(1H)-yl)methanone] | 32% | 44%
28 | COc1ccccc1C(=O)N1CCn2cccc2C1c1ccc(Cl)cc1 (stereo not drawn) [Example 29, (1-(4-chlorophenyl)-3,4-dihydropyrrolo[1,2-a]pyrazin-2(1H)-yl)(2-methoxyphenyl)methanone] | 34% | 21%
29 | CCC(C)C(=O)N1CCn2cccc2C1c1ccccc1C (stereo not drawn) [Example 31, 2-methyl-1-(1-o-tolyl-3,4-dihydropyrrolo[1,2-a]pyrazin-2(1H)-yl)butan-1-one] | 26% | –
30 | Cc1ccccc1C(=O)N1CCn2cccc2C1c1ccccc1 (stereo not drawn) [Example 26, (1-phenyl-3,4-dihydropyrrolo[1,2-a]pyrazin-2(1H)-yl)(o-tolyl)methanone] | 32% | 23%
31 | O=C(c1ccco1)N1CCn2cccc2C1c1ccc2c(c1)OCCO2 (stereo not drawn) [Example 37, [1-(2,3-dihydro-benzo[1,4]dioxin-6-yl)-3,4-dihydro-1H-pyrrolo[1,2-a]pyrazin-2-yl]-furan-2-yl-methanone] | 55% | 32%
32 | O=C(c1ccc(F)cc1)N1CCn2cccc2C1c1ccccc1 (stereo not drawn) [Example 20, (4-fluorophenyl)(1-phenyl-3,4-dihydropyrrolo[1,2-a]pyrazin-2(1H)-yl)methanone] | 32% | 33%
33 | CCC(OC)C(=O)N1CCn2cccc2C1c1cccs1 (stereo not drawn) [Example 55, 2-methoxy-1-(1-(thiophen-2-yl)-3,4-dihydropyrrolo[1,2-a]pyrazin-2(1H)-yl)butan-1-one] | 28% | –
34 | CCC(C)C(=O)N1CCn2cccc2C1c1ccccc1OC (stereo not drawn) [Example 48, 1-(1-(2-methoxyphenyl)-3,4-dihydropyrrolo[1,2-a]pyrazin-2(1H)-yl)-2-methylbutan-1-one] | 27% | –
35 | Cc1ccccc1C(=O)N1CCn2cccc2C1c1ccccc1C (stereo not drawn) [Example 11, o-tolyl(1-o-tolyl-3,4-dihydropyrrolo[1,2-a]pyrazin-2(1H)-yl)methanone] | 38% | –
36 | O=C(c1ccccc1)N1CCn2cccc2C1c1cccs1 (stereo not drawn) [Example 82, phenyl(1-(thiophen-2-yl)-3,4-dihydropyrrolo[1,2-a]pyrazin-2(1H)-yl)methanone] | – | 35%
